Where two headings read alike, the source gives them in different places.
Columns and labels:
KIF18A = KIF18A (Homo sapiens (Human), UniProt Q8NI77); test: KIF18A enzymatic activity inhibition, ADP-Glo kit; type: biochemical; conditions: 4 nM KIF18A, 30 μM ATP
Summary of the method: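 KIF18A (1467) at 4 nM was preincubated with compound for 20 min at 37 °C in 15 mM Tris pH 7.5, 10 mM MgCl2, 0.01% Pluronic F-68. The reaction was started with 30 μM ATP and ran 15 min at room temperature.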

[1] = Pharmacokinetic test in mice; type: in vivo; conditions: BALB/c mice; for AUC / Cmax / half-life: mouse, plasma; for half-life: read-out: t½ (converted)
Description: In this example, the pharmacokinetic behavior of the compounds after intravenous injection (IV) and intragastric (PO) administration in BALB/c mice was tested.
On the day of administration, mice were weighed for actual body weight and the administration volume was calculated. Each compound was tested in two groups with 9 mice in each group; one group was subjected to administration by single intravenous injection, and the other group of mice was subjected to single intragastric administration. Whole blood samples were collected via the orbit at prescribed time points (0.25 h, 0.5 h, 1 h, 2 h, 4 h, 8 h, and 24 h after administration). After blood sample collection, the samples were immediately transferred to labeled commercial sample tubes containing K2-EDTA (0.85-1.15 mg), followed by centrifugation (3200×g, 4° C., 10 min) and plasma collection. The plasma was transferred to a pre-cooled centrifuge tube, frozen in dry ice, and then stored in an ultra-low temperature freezer at −60° C. or lower until the LC-MS/MS analysis.
Plasma concentrations were determined by the LC-MS/MS method. Plasma drug concentration data for the compounds were processed using a non-compartmental model in the WinNonlin Version 6.3 (Pharsight, Mountain View, CA) pharmacokinetic software. The relevant pharmacokinetic parameters were calculated by a linear-log trapezoidal method.

[2] = Stability test in rat liver microsomes; type: in vitro ADME, Sprague-Dawley rats; conditions: rat liver microsomes 0.5 mg/mL, 1.0 μM substrate; for CLint scaled at 1 μM / half-life at 1 μM: Sprague-Dawley, pH 7.4; for CLint scaled at 1 μM: read-out: RLM 0.5 CLint(liver); for half-life at 1 μM: read-out: RLM 0.5 T½
Description: (§1) The phase I metabolic stability of the compounds in liver microsomes of CD-1 mice, Sprague-Dawley rats, beagle dogs, cynomolgus monkeys, and humans was assessed.
(§2) The animal and human liver microsomes used in the test system were purchased from Xenotech, Corning, or other qualified suppliers and stored in a freezer at a temperature below −60° C. prior to use.
(§3) The test samples and control compounds were separately incubated with animal and human liver microsomes at 37±1° C. for a period of incubation time up to 60 min. The samples were removed at the indicated time points, and the reaction was stopped with acetonitrile or another organic solvent containing an internal standard. After centrifugation, the resulting supernatants were assayed by the liquid chromatography-tandem mass spectrometry (LC-MS/MS) method.
(§4) 73.21 g of dipotassium hydrogen phosphate trihydrate and 10.78 g of potassium dihydrogen phosphate were dissolved in 4000 mL of ultrapure water. The solution was adjusted to pH 7.40±0.10 with 10% phosphoric acid or 1 M potassium hydroxide to make a final concentration of 100 mM.
(§5) The test sample powder was prepared into a stock solution at a certain concentration with DMSO or another organic solvent, which was then further diluted with a suitable organic solvent.
(§6) Microsomes of each species were diluted into a 2× working solution with a 100 mM potassium phosphate buffer. The final concentration of the microsomes in the reaction system was 0.5 mg/mL.
(§7) An appropriate amount of nicotinamide adenine dinucleotide phosphate (NADP) and isocitric acid (ISO) powder was weighed out, dissolved in a magnesium chloride solution, and shaken and mixed well. An appropriate amount of isocitrate dehydrogenase (IDH) was added, and the mixture was mixed well by gently turning upside down. The final concentrations in the reaction system were: 1 mM NADP, 1 mM magnesium chloride, 6 mM ISO, and 1 unit/mL IDH.
(§8) The stop solution was prepared with acetonitrile or another organic solvent containing an internal standard (tolbutamide or another suitable compound). The prepared stop solution was stored in a freezer at 2-8° C.
(§9) Incubation was performed in a 96-well plate. Eight incubation plates were prepared and designated T0, T5, T15, T30, T45, T60, Blank60, and NCF60, respectively. The first 6 plates corresponded to reaction time points of […], respectively. No test sample or control compound was added to the Blank60 plate, and samples were taken after 60 min of incubation. In the NCF60 plate, incubation was performed for 60 min using the potassium phosphate buffer instead of the NADPH regeneration system solution. Three replicates were made for samples in all conditions.
(§10) The microsomes and the test sample or control compound were mixed, and then the incubation plates Blank60, T5, T15, T30, T45, and T60 except for TO and NCF60 were placed in a 37° C. water bath for pre-incubation for about 10 min. In the incubation plate T0, a stop solution was first added, followed by addition of the NADPH regeneration system working solution, and 98 μL of the potassium phosphate buffer was added to each sample well of the incubation plate NCF60 to initiate the reaction. After the pre-incubation of the incubation plates Blank60, T5, T15, T30, T45, and T60 was completed, 98 μL of the NADPH regeneration system working solution was added to each sample well to initiate the reaction. The reaction temperature was 37±1° C., the final volume of the reaction was 200 μL, and the reaction system included 0.5 mg/mL microsomes, 1.0 μM substrate, 1 mM NADP, 6 mM ISO, and 1 unit/ml IDH.
(§11) At 5 min, 15 min, […], 45 min, and 60 min, a cold stop solution containing an internal standard was added to the reaction plate to stop the reaction.
(§12) All the reaction plates after the reaction was stopped were shaken well and centrifuged at 3220×g at 4° C. for 20 min. After the supernatant was diluted at a certain ratio, LC-MS/MS analysis was performed. […]

[3] = Stability test in mouse liver microsomes; type: in vitro ADME, CD-1 mice; conditions: mouse liver microsomes 0.5 mg/mL, 1.0 μM substrate; for CLint scaled at 1 μM / half-life at 1 μM: CD-1, pH 7.4; for CLint scaled at 1 μM: read-out: MLM 0.5 CLint(liver); for half-life at 1 μM: read-out: MLM 0.5 T½
Description: as §1, §2, §3, §4, §5, §6, §7, §8, §9, §10, §11, §12

[4] = target: cytochrome oxidase P450 2D6 (Homo sapiens (Human), UniProt P10635); test: Inhibition of cytochrome oxidase P450 2D6; type: in vitro ADME; conditions: liver microsomes, CYP2D6
cytochrome oxidase P450 2D6, sequence (P10635 whole entry): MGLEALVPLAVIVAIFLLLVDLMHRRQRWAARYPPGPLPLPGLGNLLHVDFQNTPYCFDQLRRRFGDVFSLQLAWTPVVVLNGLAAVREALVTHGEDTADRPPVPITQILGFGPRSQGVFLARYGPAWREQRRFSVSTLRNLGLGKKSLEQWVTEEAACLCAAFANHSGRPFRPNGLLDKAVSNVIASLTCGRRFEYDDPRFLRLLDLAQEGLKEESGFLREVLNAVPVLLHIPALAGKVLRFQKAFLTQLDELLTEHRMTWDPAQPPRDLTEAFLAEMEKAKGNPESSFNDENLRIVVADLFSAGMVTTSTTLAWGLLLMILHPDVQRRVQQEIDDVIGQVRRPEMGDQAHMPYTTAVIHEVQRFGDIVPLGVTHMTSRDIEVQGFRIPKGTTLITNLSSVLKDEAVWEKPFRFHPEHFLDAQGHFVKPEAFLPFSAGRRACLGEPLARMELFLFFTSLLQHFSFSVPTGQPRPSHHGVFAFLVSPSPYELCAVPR

KIF18A, sequence (Q8NI77 1-467): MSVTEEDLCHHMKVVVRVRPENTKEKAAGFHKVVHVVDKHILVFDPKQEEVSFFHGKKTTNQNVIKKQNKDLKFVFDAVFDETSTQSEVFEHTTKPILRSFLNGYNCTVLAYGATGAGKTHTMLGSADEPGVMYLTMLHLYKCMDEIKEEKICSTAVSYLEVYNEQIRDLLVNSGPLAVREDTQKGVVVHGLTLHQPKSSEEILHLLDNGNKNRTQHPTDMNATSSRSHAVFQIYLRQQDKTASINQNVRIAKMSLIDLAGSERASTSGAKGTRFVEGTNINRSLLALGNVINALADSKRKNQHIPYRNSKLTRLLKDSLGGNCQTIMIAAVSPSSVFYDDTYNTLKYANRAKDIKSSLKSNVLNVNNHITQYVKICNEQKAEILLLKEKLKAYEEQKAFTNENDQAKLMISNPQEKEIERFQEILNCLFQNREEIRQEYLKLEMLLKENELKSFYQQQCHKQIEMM

SMILES	IC50 (KIF18A) [nM]	F ([1]; PO @5mpk) [%]	AUC ([1]; 5 mg/kg, PO @5mpk) [µM·h]	Cmax ([1]; 5 mg/kg, PO @5mpk) [µM]	half-life ([1]; 5 mg/kg, PO @5mpk) [h]	CLint scaled at 1 μM [2] [mL/min/kg]	half-life at 1 μM [2] [h]	CLint scaled at 1 μM [3] [mL/min/kg]	half-life at 1 μM [3] [h]	IC50 [4] [nM]	F ([1]; PO @30mpk) [%]	AUC ([1]; 30 mg/kg, PO @30mpk) [µM·h]	Cmax ([1]; 30 mg/kg, PO @30mpk) [µM]	half-life ([1]; 30 mg/kg, PO @30mpk) [h]	RLM 0.5 CLint(liver) [2] [mL/min/kg]	RLM 0.5 T½ [2] [h]	MLM 0.5 CLint(liver) [3] [mL/min/kg]	MLM 0.5 T½ [3] [h]
Cc1cc(NC(=O)c2ccc(NS(=O)(=O)CCO)cc2N2CC3CCC(C3)C2)nc(N2CCC(F)(F)CC2)n1 [Compound 3]	19.8	87	74.8	4.25	44.5	–	–	–	–	–	–	–	–	–	–	–	–	–
O=C(Nc1cc2ccccc2c(N2CCC(F)(F)CC2)n1)c1ccc(NS(=O)(=O)CCO)cc1N1CCC2(CC1)CC2 [Compound 6]	95.6	44	13.5	1.55	4.7	< 17.3	> 2.42	< 38	> 2.42	> 10000	–	–	–	–	–	–	–	–
O=C(Nc1cn2ccnc2c(N2CCC(F)(F)CC2)n1)c1ccc(NS(=O)(=O)CCO)cc1N1CCC2(CC1)CC2 [Compound 8]	21.3	97	6.87	1.61	1.2	< 17.3	> 2.42	219	0.418	> 10000	–	–	–	–	–	–	–	–
CS(=O)(=O)Nc1ccc(C(=O)Nc2cn3ccnc3c(N3CCC(F)(F)CC3)n2)c(N2CCC3(CC2)CC3)c1 [Compound 10]	25.7	–	–	–	–	19.3	2.16	182	0.502	–	–	–	–	–	–	–	–	–
O=C(Nc1cc2c(c(N3CCC(F)(F)CC3)n1)COC2)c1ccc(NS(=O)(=O)CCO)cc1N1CCC2(CC1)CC2 [Compound 14]	28.7	–	–	–	–	34.3	1.21	54.1	1.69	–	–	–	–	–	–	–	–	–
O=C(Nc1cn2cnnc2c(N2CCC(F)(F)CC2)n1)c1ccc(NS(=O)(=O)CCO)cc1N1CCC2(CC1)CC2 [Compound 24]	3.7	–	–	–	–	–	–	–	–	–	–	–	–	–	29.5	1.41	64.7	1.41

Continued, in another order:

IC50 (KIF18A) [nM]	F ([1]; PO @5mpk) [%]	AUC ([1]; 5 mg/kg, PO @5mpk) [µM·h]	Cmax ([1]; 5 mg/kg, PO @5mpk) [µM]	half-life ([1]; 5 mg/kg, PO @5mpk) [h]	CLint scaled at 1 μM [2] [mL/min/kg]	half-life at 1 μM [2] [h]	CLint scaled at 1 μM [3] [mL/min/kg]	half-life at 1 μM [3] [h]	IC50 [4] [nM]	F ([1]; PO @30mpk) [%]	AUC ([1]; 30 mg/kg, PO @30mpk) [µM·h]	Cmax ([1]; 30 mg/kg, PO @30mpk) [µM]	half-life ([1]; 30 mg/kg, PO @30mpk) [h]	SMILES	RLM 0.5 CLint(liver) [2] [mL/min/kg]	RLM 0.5 T½ [2] [h]	MLM 0.5 CLint(liver) [3] [mL/min/kg]	MLM 0.5 T½ [3] [h]
126	79	17.8	1.77	3.4	17.2	2.42	50.6	1.81	–	–	–	–	–	O=C(Nc1cc2ccsc2c(N2CCC(F)(F)CC2)n1)c1ccc(NS(=O)(=O)CCO)cc1N1CCC2(CC1)CC2 [Compound 15]	–	–	–	–
16.4	116	13.3	2.69	3.3	–	–	–	–	–	–	–	–	–	O=C(Nc1cn2ccnc2c(N2CCC(F)(F)CC2)n1)c1ccc(NS(=O)(=O)CCO)cc1N1CC2CCC(C2)C1 [Compound 17]	–	–	–	–
–	101	58.3	3.92	14.9	27.3	1.52	52.3	1.75	> 10000	92	320	15.3	16.5	CS(=O)(=O)Nc1ccc(C(=O)Nc2cn3ccnc3c(N3CCC(F)(F)CC3)n2)c(N2CC3CCC(C3)C2)c1 [Compound 19]	–	–	–	–
–	107	60.9	4.17	4	< 17.3	> 2.42	< 38	> 2.42	> 10000	61	207	15.3	5.4	O=C(Nc1cc2cccnc2c(N2CCC(F)(F)CC2)n1)c1ccc(NS(=O)(=O)CCO)cc1N1CCC2(CC1)CC2 [Compound 21]	–	–	–	–
26.4	–	–	–	–	–	–	–	–	–	218	79.8	14.6	10	O=C(Nc1cc2cc[nH]c2c(N2CCC(F)(F)CC2)n1)c1ccc(NS(=O)(=O)CCO)cc1N1CCC2(CC1)CC2 [Compound 22]	–	–	–	–
3.6	–	–	–	–	< 17.3	> 2.42	< 38	> 2.42	–	–	–	–	–	O=C(Nc1cn2ncnc2c(N2CCC(F)(F)CC2)n1)c1ccc(NS(=O)(=O)CCO)cc1N1CCC2(CC1)CC2 [Compound 23]	–	–	–	–
–	257	70.1	6.39	3.7	4.4	9.33	14.3	6.34	> 10000	147	220	15.2	9.6	O=C(Nc1cn2c(F)cnc2c(N2CCC(F)(F)CC2)n1)c1ccc(NS(=O)(=O)CCO)cc1N1CCC2(CC1)CC2 [Compound 34]	–	–	–	–
–	–	–	–	–	9	4.59	2.3	40.3	2240	–	–	–	–	CS(=O)(=O)Nc1ccc(C(=O)Nc2cc3cc[nH]c3c(N3CCC(F)(F)CC3)n2)c(N2CCC3(CC2)CC3)c1 [Compound 47]	–	–	–	–

— patent US20250382298A1, “NITROGEN-CONTAINING COMPOUND AND USE THEREOF” (SUZHOU GENHOUSE BIO CO., LTD., priority 2022, published 2025)
